Source: patent EP3421483A1, “NOVEL STEROIDAL 17-BETA HETEROARYL COMPOUNDS AS INHIBITORS OF AKR1C3” (Bayer Pharma Aktiengesellschaft, priority 2017, dated 2019)
Values joined by “and” are separate entries in the source; they are usually repeats but may differ in a detail not shown here. Identical values can stand only once. Like-named read-outs stand apart in the source and are kept apart here.

Target: T1, recombinant human AKR1C3 (aldo-keto reductase family 1 member C3) (Homo sapiens, UniProt P42330)
T1 construct: GST (cleaved yes); made in house; host or cells: E. coli
T1 sequence (P42330 1-323): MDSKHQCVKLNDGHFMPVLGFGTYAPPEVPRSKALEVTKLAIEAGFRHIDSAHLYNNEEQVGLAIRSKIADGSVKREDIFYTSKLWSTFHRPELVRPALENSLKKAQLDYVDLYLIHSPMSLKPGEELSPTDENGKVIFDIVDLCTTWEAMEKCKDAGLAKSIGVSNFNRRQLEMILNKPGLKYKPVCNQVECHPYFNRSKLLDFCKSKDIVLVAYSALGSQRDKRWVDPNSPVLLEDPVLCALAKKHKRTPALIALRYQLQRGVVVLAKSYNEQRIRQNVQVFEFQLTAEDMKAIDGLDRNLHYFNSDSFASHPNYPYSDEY
Assay: AKR1C3 enzyme inhibition assay (fluorescence; NADPH-dependent reduction of coumberone to coumberol)
Type: biochemical
Description: The AKR1C3-inhibitory action of the substances of this invention was measured in the AKR1C3 assay described in the paragraphs which follow. Essentially, the enzyme activity is measured by quantifying the coumberol formed from coumberone ([…]., and […]. AM. CHEM. SOC. 130, 14123-14128 (2008) […]., Bauman, D.R., Penning, T.M., and […]., Proc. Natl. Acad. Sci. USA 103, 13304 - 13309 (2006)). In this assay, the increase in the highly fluorescent coumberol can be determined by NADPH (nicotinamide adenine dinucleotide phosphate)-dependent reduction of the nonfluorescent coumberone by AKR1C3. […] NM_003739). This was expressed as the GST (glutathione S-transferase) fusion protein in E. coli and purified by means of glutathione-Sepharose affinity chromatography. The GST was removed by thrombin digestion with subsequent size exclusion chromatography (Dufort, I., Rheault, P., Huang, XF., Soucy, P., and Luu-The, V., Endocrinology 140, 568-574 (1999)). […] The concentration of the AKR1C3 was matched to the respective activity of the enzyme preparation and set such that the assay worked within the linear range. Typical concentrations were in the region of 1 nM. The reaction was stopped by adding 5 μl of a stop solution consisting of the inhibitor EM-1404 [F. Labrie et al. US Patent 6,541,463, 2003] (2 μM → final concentration in assay volume […] is 1 μM). Subsequently, the fluorescence of coumberol was measured at 520 nm (excitation at 380 nm) with a suitable measuring instrument (Pherastar from BMG Labtechnologies). […] As described, the pharmacological substances claimed were tested for their inhibitory effect on the AKR1C3 enzyme (see Table 3). […] Table 3: Inhibition of AKR1C3 by the inventive compounds (for some of the compounds, the values for two experimental determinations are reported)

[1] = 10 µM NADPH, 0.3 µM coumberone, 15 min preincubation, 90 min at 22°C, pH 7, 4-parameter fit, for some compounds two experimental determinations are given, read-out: AKR1C3 enzyme inhibition IC50

Structure (SMILES)	IC50 [1]	also measured
CN(CCC(=O)O)C(=O)c1ccc2c(c1)CC[C@H]1[C@@H]3[C@H](O)C[C@H](c4cncc(F)c4)[C@@]3(C)CC[C@H]21 [Example 11, N-{[(15beta,17beta)-17-(5-fluoropyridin-3-yl)-15-hydroxyestra-1,3,5(10)-trien-3-yl]carbonyl}-N-methyl-beta-alanine]	22.4 nM	–
CN(CCC(=O)O)C(=O)c1ccc2c(c1)CC[C@H]1[C@@H]3[C@@H](O)C[C@H](c4cncc(F)c4)[C@@]3(C)CC[C@H]21 [Example 12, N-{[(15alpha,17beta)-17-(5-fluoropyridin-3-yl)-15-hydroxyestra-1,3,5(10)-trien-3-yl]carbonyl}-N-methyl-beta-alanine]	188 nM	–
C[C@]12CC[C@@H]3c4ccc(C(=O)NCCC(=O)O)cc4CC[C@H]3[C@@H]1CC[C@@H]2c1cncc(F)c1 [Example 3, N-{[(17beta)-17-(5-fluoropyridin-3-yl)estra-1,3,5(10)-trien-3-yl]carbonyl}-beta-alanine]	5.47 nM and 9.35 nM	–
CC(C)(CNC(=O)c1ccc2c(c1)CC[C@@H]1[C@@H]2CC[C@]2(C)[C@@H](c3cncc(F)c3)CC[C@@H]12)C(=O)O [Example 5, 3-([[(17beta)-17-(5-fluoropyridin-3-yl)estra-1,3,5(10)-trien-3-yl]carbonyl}amino)-2,2-dimethylpropanoic acid]	–	IC50: 13.8 nM and 13.1 nM
C[C@]12CC[C@@H]3c4ccc(C(=O)NCCCC(=O)O)cc4CC[C@H]3[C@@H]1CC[C@@H]2c1cncc(F)c1 [Example 4, 4-({[(17beta)-17-(5-fluoropyridin-3-yl)estra-1,3,5(10)-trien-3-yl]carbonyl}amino)butanoic acid]	–	IC50 (read-out: AKR1C3 enzyme inhibition IC50, 10 µM NADPH, 0.3 µM coumberone, 15 min preincubation, 90 min at 22°C, pH 7, 4-parameter fit, for some compounds two experimental determinations are given): 7.79 nM and 6.76 nM
CN(CCC(=O)O)C(=O)c1ccc2c(c1)CC[C@@H]1[C@@H]2CC[C@]2(C)[C@@H](c3cncnc3)CC[C@@H]12 [Example 10, N-methyl-N-{[(17beta)-17-(pyrimidin-5-yl)estra-1,3,5(10)-trien-3-yl]carbonyl}-beta-alanine]	271 nM and 282 nM	–

Second part, led by results:

IC50 [1]	Structure (SMILES)	also measured
19.2 nM and 23.7 nM	CN(CCC(=O)O)C(=O)c1ccc2c(c1)CC[C@@H]1[C@@H]2CC[C@]2(C)[C@@H](c3cncc(F)c3)CC[C@@H]12 [Example 1, N-{[(17beta)-17-(5-fluoropyridin-3-yl)estra-1,3,5(10)-trien-3-yl]carbonyl}-N-methyl-beta-alanine]	–
35 nM and 44.1 nM	CN(CCC(=O)O)C(=O)c1ccc2c(c1)CC[C@@H]1[C@@H]2CC[C@]2(C)[C@@H](c3cncc(C(F)(F)F)c3)CC[C@@H]12 [Example 7, N-methyl-N-{[(17beta)-17-[5-(trifluoromethyl)pyridin-3-yl]estra-1,3,5(10)-trien-3-yl]carbonyl}-beta-alanine]	–
16.9 nM and 26 nM	C[C@]12CC[C@@H]3c4ccc(C(=O)NCCC(=O)O)cc4CC[C@H]3[C@@H]1CC[C@@H]2c1cncc(C(F)(F)F)c1 [Example 9, N-{[(17beta)-17-[5-(trifluoromethyl)pyridin-3-yl]estra-1,3,5(10)-trien-3-yl]carbonyl}-beta-alanine]	–
26.4 nM and 28.9 nM	C[C@]12CC[C@@H]3c4ccc(C(=O)NCC(=O)O)cc4CC[C@H]3[C@@H]1CC[C@@H]2c1cncc(F)c1 [Example 2, N-[[(17beta)-17-(5-fluoropyridin-3-yl)estra-1,3,5(10)-trien-3-yl]carbonyl}glycine]	–
67.6 nM and 82.1 nM	COc1cncc([C@H]2CC[C@H]3[C@@H]4CCc5cc(C(=O)N(C)CCC(=O)O)ccc5[C@H]4CC[C@]23C)c1 [Example 6, N-{[(17beta)-17-(5-methoxypyridin-3-yl)estra-1,3,5(10)-trien-3-yl]carbonyl}-N-methyl-beta-alanine]	–
48.5 nM and 76.2 nM	CN(CC(=O)O)C(=O)c1ccc2c(c1)CC[C@@H]1[C@@H]2CC[C@]2(C)[C@@H](c3cncc(C(F)(F)F)c3)CC[C@@H]12 [Example 8, N-methyl-N-[[(17beta)-17-[5-(trifluoromethyl)pyridin-3-yl]estra-1,3,5(10)-trien-3-yl]carbonyl}glycine]	–
